Here are results for twelve compounds from patent publication US20090298786A1, “METHODS OF TREATING VIRAL INFECTIONS WITH ANTHRACYCLINE ANTIBIOTICS” (priority 2007, published 2009).

Where two headings read alike, the source gives them in different places.

The test system of data set [1] is subgenomic HCV genotype 1 (con 1) replicon. Description: Antiviral activity, subgenomic HCV replicon luciferase test in Huh-7 cells. Type of data set: cell-based, hepatitis C virus. As to the method:
Studies on inhibition of HCV replication, using human liver cancer cell line (Huh7) carrying a subgenomic HCV replicon of genotype 1 (con1) with a reporter/selection fusion protein luc-ubi-neo, were also carried out.
In order to examine antiviral activity and to determine therapeutic index of exemplary anthracycline antibiotics, subgenomic replicon of hepatitis C virus was used, which is a modified genome of HCV lacking structural genes. The replicon was a non-infective form of the virus, and therefore is safe to work with and makes it easier for high-throughput screening of potential inhibitors of its replication.
Additional simplification was the use of reporter protein—luciferase, whose activity (i.e., luminescence generated by it after addition of substrate) was proportional to the amount of the protein expressed, which allowed determination of HCV RNA replication level and its inhibition by virus replication inhibitors.
The human hepatoma cell line Huh-7 and the plasmid pFK-luc-ubi-neo/NS3-3′/Con1/5.1 carrying the subgenomic HCV genotype 1 (con 1) replicon with the luc-ubi-neo reporter/selective fusion protein (Vrolijk J. M. et al., J. Virol. Methods 110: 201-209, 2003), used in the experiments, were provided by Dr. Ralf Bartenschlager (Department of Molecular Virology, University of Heidelberg, Heidelberg). Huh-7 clones carrying persistently-replicating subgenomic HCV replicons were obtained using the following modification of the protocol described by Lohman V. et al. (J. Virol. 75:1437-1449, 2001).
(§1) Huh-7 cells were grown in minimal essential medium (Dulbecco's Modified Minimal Essential Medium, DMEM; Invitrogen) with high glucose concentration (4.5 g/L) supplemented with 2 mM L-glutamine and 1 μM non-essential amino acids, such as: glycine, L-alanine, L-asparagine, L-aspartic acid, L-glutamic acid, L-proline and L-serine, and also with 100 U/mL penicilin, 100 μg/mL streptomycin, and 10% fetal bovine serum (FBS, Sigma). In cultures of cells bearing the subgenomic HCV replicon 250 μg/mL of aminoglycoside antibiotics G418 (Geneticin; Invitrogen) was added to the medium. Cells were grown at 37° C. (5% CO2) and were passaged twice per week, diluted 7 to 10 times, according to the protocol described in Vrolijk J. M. et al., J. Virol. Methods 110:201-209, 2003.
(§2) The Huh-7 cells carrying replicons were cultivated with the following concentrations of anthracycline antibiotics: 5 to 200 nM for 4 days to determine their influence on HCV RNA replication and 5 to 5000 nM for 3 days to determine cytotoxicity. The medium with 1% DMSO was used as a control.
Conditions of the antiviral activity test of antracycline antibiotics were based on the protocol described by Paeshuyse J. et al. (Biochem. Biophys. Res. Commun. 348: 139-144, 2006). A logarithmic culture of HCV replicon-carrying cells was diluted in complete DMEM medium supplemented with 250 μg/ml G418 to the concentration of 5-7×10^3 cells per mL and aliquoted into 96-well white microtitration plate with optical bottom (Nunc) (100 μL per well). After 24 h at 37° C. the medium was removed and dilution of inhibitors in the range of 5 to 200 nM was added in 100 μL of fresh DMEM medium without G418. Huh-7 cells with 1% DMSO were used as a control. After 4 days at 37° C., the medium was removed and 40 μL of mixture of Glo Lysis buffer and Bright-Glo luciferase assay system (Promega) was added to each well. After 2 mins of incubation luminescence was measured with a Synergy HTi (Biotek) device. The experiment was repeated at least three times with three repetitions for each inhibitor concentration.
A general note: A replicon is a self-replicating genome or part of one, used to study replication in cells.

The target in another data set is helicase. The conditions noted are these: Borowski P. et al., Antiviral Res. 55, 397-412, 2002; read-out: IC50 (antihelicase activity); cited from earlier work.
Data set [2] deals with T1, HCV helicase (helicase domain of NS3 protein) (UniProt P27958).
T1 construct: The helicase domain of NS3 protein was expressed in a baculovirus system in HF insect cell line; fused on or other part: Histidine tag, inferred from the Talon cobalt column purification ('histidine repetitions')
Put plainly: Fluorometric (FRET) antihelicase activity assay. In kind it is biochemical, hepatitis C virus (HCV). The conditions noted are these: concentration inhibiting 50% of helicase activity; 10 nM enzyme pre-incubated 15 min with derivative, unwinding at 30° C. for 60 min; read-out: IC50. The source says:
A reaction takes place on a 96- or 384-well microtitration plate and a course of the reaction is observed in real time.
The helicase domain of NS3 protein was expressed in a baculovirus system in HF insect cell line.
In this assay, FAM fluorescence is quenched by fluorescence energy transfer (FRET) to the BHQ molecule, while unwinding of double-stranded DNA structure leads to decrease of FRET phenomenon and increase of FAM fluorescence signal. The assay allows for examining a large number of samples, i.e., different helicase inhibitors at various concentrations and with many repetitions, in standardized conditions. The reaction is conducted in a microtitration plate. The reaction process is observed in real time.
The enzyme (10 nM) was pre-incubated with the tested derivatives dissolved in DMSO (0.005 to 20 μM concentration) without ATP for 15 min at room temperature. The reaction of DNA unwinding was started by addition of ATP and was carried out at 30° C. for 60 min in a Synergy HTi (Biotek) fluorometer. […] Fluorescence was measured every 2 mins.
The enzyme activity was calculated as the initial reaction velocity from the linear part of reaction curve (fluorescence growth as a function of time) using a linear regression method. Inhibition was calculated as comparison of activity of the helicase incubated with inhibitor to activity of the helicase incubated without inhibitor, but with a proper concentration of DMSO, expressed in percent.

For data set [3], the system named is Huh-7 cells carrying replicons. Description: Cytotoxicity (MTT) in HCV replicon-carrying Huh-7 cells. The conditions noted are these: Huh-7 replicon cells, 3 days, MTT, cell growth inhibited by 50%. The method, then:
as §1, §2
(§3) When determining cytotoxicity, as in the antiviral test, logarithmic culture of HCV replicon-carrying cells was diluted in complete DMEM medium supplemented with 250 μg/mL G418 to the concentration of 5−7×10^3 cells per mL and aliquoted into 96-well mictotitration cell culture plate (100 μL per well). After 24 h at 37° C. medium was removed and inhibitors were added at concentrations of 5 to 5000 nM in 100 μL of fresh DMEM medium without G418. After 3 days at 37° C., the medium was removed and 100 μL of fresh DMEM medium with 0.5 mg/mL of MTT (tetrazolium bromide, Sigma) was added to each well. After 3 to 4 hours of incubation at 37° C., the medium with MTT was removed and 100 μL of 0.04 N HCl solution in absolute isopropanol was added to solubilize the precipitated dye. Dye absorbance was measured at 570 nm, while absorbance of the background was measured at 650 nm using Synergy HTi (Biotek). The experiment was repeated at least 3 times with 3 repetitions for each inhibitor concentration.

Test in data set [4]: as above
The conditions noted are these: human, Huh-7 cells carrying subgenomic HCV replicon. As to the method:
as §1, §2, §3

Where [5] appears, read: Hepatitis C virus, Huh-7, 96 h, Huh-7 replicon cells, 4 days, luminescence reduced by 50%.
The mark [6] stands for this setting: Huh-7 replicon cells, 4 days, luminescence reduced by 50%, read-out: EC50.

T1 sequence (P27958 1027-1657): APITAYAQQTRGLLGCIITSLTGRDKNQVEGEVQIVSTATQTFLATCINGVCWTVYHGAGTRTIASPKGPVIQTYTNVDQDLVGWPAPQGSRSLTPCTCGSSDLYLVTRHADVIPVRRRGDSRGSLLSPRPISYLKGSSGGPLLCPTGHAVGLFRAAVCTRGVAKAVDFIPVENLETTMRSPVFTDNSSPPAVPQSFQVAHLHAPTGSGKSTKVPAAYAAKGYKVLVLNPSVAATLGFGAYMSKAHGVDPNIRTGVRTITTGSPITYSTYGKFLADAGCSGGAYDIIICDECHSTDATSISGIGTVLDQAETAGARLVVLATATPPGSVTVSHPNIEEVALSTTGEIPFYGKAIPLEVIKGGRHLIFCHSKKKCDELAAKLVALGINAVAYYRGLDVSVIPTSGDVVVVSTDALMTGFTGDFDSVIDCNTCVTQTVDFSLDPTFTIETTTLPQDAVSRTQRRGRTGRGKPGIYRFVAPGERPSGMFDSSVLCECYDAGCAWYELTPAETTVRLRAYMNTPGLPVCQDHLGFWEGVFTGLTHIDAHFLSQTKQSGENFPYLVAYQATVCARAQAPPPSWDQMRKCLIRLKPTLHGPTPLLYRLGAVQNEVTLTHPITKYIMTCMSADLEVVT

Turning to `COc1cccc2c1C(=O)c1c(O)c3c(c(O)c1C2=O)C[C@@](O)(C(C)=O)C[C@@H]3O[C@H]1C[C@H](N)[C@H](O)[C@H](C)O1` [Daunorubicin, reference compound], the 50% effective concentration (EC50) in data set [1] (setting [5]) was 31.2 nM. Further, the values for the 50% inhibitory concentration (IC50) (on helicase; in data set [2]) were 57 µM and 6050 nM, respectively.
In the case of `COc1cccc2c1C(=O)c1c(O)c3c(c(O)c1C2=O)CC(O)(C(=O)CO)CC3OC1CC(N=C(C)N2CCOCC2)C(O)C(C)O1` (stereo not drawn) [Derivative 54], the EC50 in data set [1] (setting [6]) amounted to 129 nM. In addition, the CC50 in data set [3] was found to be 4280 nM. Moreover, the half-maximal inhibitory concentration (IC50) in data set [2] amounted to 510 nM.
On to `COc1cccc2c1C(=O)c1c(O)c3c(c(O)c1C2=O)CC(O)(C(C)=O)CC3OC1CC(N=CN2CCCCCC2)C(O)C(C)O1.Cl` (stereo not drawn) [Derivative 75], for which the “activity (EC50) fold higher than that of epidoxorubicin, doxorubicin, epidaunorubicin, or daunorubicin” value in data set [1] (HCV replicon) is reported as 4 fold. Further, the EC50 in data set [1] (setting [6]) came to 8.4 nM. For the same compound, the CC50 in data set [3] was 47.9 nM. For the same compound, in data set [2], the concentration for half-maximal inhibition (IC50) worked out at 2330 nM.
Take `COc1cccc2c1C(=O)c1c(O)c3c(c(O)c1C2=O)CC(O)(C(C)=O)CC3OC1CC(N=C(C)N2CCN(C)CC2)C(O)C(C)O1` (stereo not drawn) [Derivative 94]: the EC50 in data set [1] (setting [5]) amounted to 56.9 nM. Moreover, the cytotoxic concentration (CC50) at 3 days in data set [4] turned out to be 1090 nM. In data set [2], the 50% inhibitory concentration (IC50) came to 80 ± 20 nM.
For the compound `COc1cccc2c1C(=O)c1c(O)c3c(c(O)c1C2=O)CC(O)(C(=O)CO)CC3OC1CC(N=C(C)N2CCOCC2)C(O)C(C)O1` (stereo not drawn) [Derivative 125], the EC50 in data set [1] (setting [6]) came out at 114 nM. Also, the cytotoxic concentration (CC50) in data set [3] turned out to be 909 nM. The IC50 in data set [2] stood at 290 nM.
In the case of `COc1cccc2c1C(=O)c1c(O)c3c(c(O)c1C2=O)CC(O)(C(=O)CO)CC3OC1CC(N=C(C)N2CCc3ccccc32)C(O)C(C)O1` (stereo not drawn) [Derivative 133], in data set [1] (setting [6]), the concentration giving a half-maximal response (EC50) amounted to 138 nM. Besides, the half-maximal cytotoxic concentration (CC50) in data set [3] came out at 1570 nM. The IC50 in data set [2] is 380 nM.
`COc1cccc2c1C(=O)c1c(O)c3c(c(O)c1C2=O)C[C@@](O)(C(=O)CO)C[C@@H]3O[C@H]1C[C@H](N)[C@H](O)[C@H](C)O1` [Doxorubicin, reference compound]: the EC50 in data set [1] (setting [5]) turned out to be 31.2 nM; in data set [1] (Huh-7 replicon cells, 4 days, luminescence reduced by 50%) it was 42.9 nM. Further, on helicase, the 50% inhibitory concentration (IC50) was 5 µM. In addition, the cytotoxic concentration (CC50) at 3 days in data set [4] was determined as 332 nM.
In the case of `COc1cccc2c1C(=O)c1c(O)c3c(c(O)c1C2=O)C[C@@](O)(C(C)=O)C[C@@H]3O[C@H]1C[C@H](N)[C@@H](O)[C@H](C)O1` [Epidaunorubicin, reference compound], the EC50 in data set [1] (setting [6]) worked out at 31.2 nM. Further, the IC50 in data set [2] was found to be 3730 nM.
In the case of `COc1cccc2c1C(=O)c1c(O)c3c(c(O)c1C2=O)C[C@@](O)(C(=O)CO)C[C@@H]3O[C@H]1C[C@H](N)[C@@H](O)[C@H](C)O1` [Epidoxorubicin, reference compound], the IC50 at helicase is 0.75 µM. Besides, in data set [4], the CC50 at 3 days stood at 675 nM.
As to `O=C1c2c(O)ccc(O)c2C(=O)c2c(NCCNCCO)ccc(NCCNCCO)c21` [mitoxantrone], the half-inhibitory concentration (IC50) at helicase was 6.7 µM.
Regarding `COC(=O)[C@@H]1c2cc3c(c(O)c2[C@@H](O[C@@H]2O[C@@H](C)[C@H](OC)[C@@](C)(OC)[C@H]2OC)C[C@]1(C)O)C(=O)c1c(O)cc2c(c1C3=O)O[C@@H]1O[C@@]2(C)[C@H](O)[C@@H](N(C)C)[C@@H]1O` [nogalamycin], the half-maximal inhibitory concentration (IC50) on helicase was 0.1 µM.
`NC(=O)c1ncn([C@@H]2O[C@H](CO)[C@@H](O)[C@H]2O)n1` [ribavirin, reference compound]: the concentration for a half-maximal effect (EC50) in data set [1] (Hepatitis C virus, Huh-7, ribavirin, comparison drug) turned out to be 120000 nM.

For orientation: EC50 means the concentration needed to bring the measured effect to its halfway point. As a reminder, the IC50 is the concentration that inhibits the measured activity by half. As usually defined, the CC50 is the concentration that lowers cell viability or growth by half.
